Source: patent US12534441B2, “Tryptamine analogues” (priority 2021, dated 2026)

What was measured:
HTR2A = target: T1, HTR2A (Homo sapiens, UniProt P28223); test: B-arrestin assay (DiscoverX PathHunter), 2a receptor; type: cell-based; details: percentage relative response vs 10 μM serotonin; FIG. 4
T1 construct: host or cells: U2OS
Protocol: (§1) Compounds 005, 008 and 018 were assayed using a serotonin (1a, 1b, 2a and 2c receptors) B-arrestin assay, provided by DiscoverX. The reference used was 10 μM serotonin to calculate the percentage relative response. The results can be seen in FIG. 4. […] The compounds were also assayed in a serotonin 2b receptor B-arrestin assay, the results of which can be seen in FIG. 5.
HTR2A PathHunter® eXpress HTR2A U2OS β-Arrestin GPCR Assay 93-0401E3CP19M 200 dp (2×96-well)

[1] = test system: serotonin (2a, 2b and 2c receptors); test: Serotonin receptor inositol phosphate 1 (IP1) assay (Multispan); type: cell-based, Human; details: percentage relative response vs 1 μM serotonin; FIG. 2
Protocol: Compounds 005, 008 and 018 were assayed using a serotonin (2a, 2b and 2c receptors) inositol phosphate 1 (IP1) assay, provided by Multispan. The reference used was 1 μM serotonin to calculate the percentage relative response. The results can be seen in FIG. 2.
IP-One Gq kit—cisbio—cat. No. 62IPAPEB
(§2) MULTISCREEN™ CHO-K1 Cell Line Stably Expressing Human 5-HT2A Receptor, Catalog DC1324-1
MULTISCREEN™ CHO-K1 Cell Line Stably Expressing Human 5-HT2B Receptor, Catalog DC1325-1
(§3) MULTISCREEN™ CHO-K1 Cell Line Stably Expressing Human 5-HT2C Receptor, Catalog DC1326-1

HTR2C = target: T2, HTR2C (Homo sapiens, UniProt P28335); test: B-arrestin assay (DiscoverX PathHunter), 2c receptor; type: cell-based; details: percentage relative response vs 10 μM serotonin; FIG. 4
T2 construct: host or cells: U2OS
T2 sequence (P28335 33-458): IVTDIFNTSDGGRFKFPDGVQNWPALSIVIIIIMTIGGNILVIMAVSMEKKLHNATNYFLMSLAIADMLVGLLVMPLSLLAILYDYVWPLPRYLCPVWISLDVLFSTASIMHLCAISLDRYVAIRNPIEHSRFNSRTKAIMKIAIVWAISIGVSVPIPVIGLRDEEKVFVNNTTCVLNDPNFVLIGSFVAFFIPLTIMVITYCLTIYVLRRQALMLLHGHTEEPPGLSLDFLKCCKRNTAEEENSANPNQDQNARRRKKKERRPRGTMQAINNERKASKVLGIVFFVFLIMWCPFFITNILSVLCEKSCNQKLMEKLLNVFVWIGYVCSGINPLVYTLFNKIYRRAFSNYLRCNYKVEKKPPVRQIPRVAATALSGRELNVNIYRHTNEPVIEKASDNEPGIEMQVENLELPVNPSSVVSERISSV
Protocol: as §1
HTR2C PathHunter® eXpress HTR2C U2OS β-Arrestin GPCR Assay 93-0289E3CP3M 200 dp (2×96-well)

[2] = test system: serotonin (1a, 1b, 2a, 2c and 7 receptors); test: Serotonin receptor cAMP assay (Multispan, HTRF); type: cell-based, Human; details: percentage relative response vs 10 μM forskolin; serotonin control; FIG. 1
Protocol: Compounds 005, 008 and 018 were assayed using a serotonin (1a, 1b, 2a, 2c and 7 receptors) cAMP assay, provided by Multispan. The reference used was 10 μM forskolin (a cAMP activator) to calculate the percentage relative response, serotonin was used as the control. The results can be seen in FIG. 1.
cAMP Gs dynamic kit—cisbio—cat. No. 62AM4PEC
MULTISCREEN™ HEK293T Cell Line Stably Expressing Human 5-HT1A Receptor, Catalog DC1319a
MULTISCREEN™ HEK293T Cell Line Stably Expressing Human 5-HT1B Receptor, Catalog DC1320a
as §2, §3
MULTISCREEN™ HEK293T Cell Line Stably Expressing Human 5-HT7 Receptor, Catalog DC1334

5-HT2C Receptor = target: T3, 5-HT2C Receptor (Homo sapiens, UniProt P28335); test: Serotonin calcium (Ca2+) assay, 2c receptor; type: cell-based; details: percentage relative response vs 10 μM serotonin, RLU; FIG. 3
T3 construct: host or cells: CHO-K1
T3 sequence (P28335 33-458): T2 sequence (P28335 33-458)
Protocol: Compounds 005, 008 and 018 were assayed using a serotonin (2a, 2b and 2c receptors) calcium (Ca^2+) assay, provided by Multispan. The reference used was 10 μM serotonin to calculate the percentage relative response in relative light units (RLU). The results can be seen in FIG. 3. Some activity for compound 005 in the 2c receptor assay was detected.
FLIPR calcium 6 assay explorer kit—VWR—cat. No. MLDVR8190
as §3

T1 sequence (P28223 whole entry): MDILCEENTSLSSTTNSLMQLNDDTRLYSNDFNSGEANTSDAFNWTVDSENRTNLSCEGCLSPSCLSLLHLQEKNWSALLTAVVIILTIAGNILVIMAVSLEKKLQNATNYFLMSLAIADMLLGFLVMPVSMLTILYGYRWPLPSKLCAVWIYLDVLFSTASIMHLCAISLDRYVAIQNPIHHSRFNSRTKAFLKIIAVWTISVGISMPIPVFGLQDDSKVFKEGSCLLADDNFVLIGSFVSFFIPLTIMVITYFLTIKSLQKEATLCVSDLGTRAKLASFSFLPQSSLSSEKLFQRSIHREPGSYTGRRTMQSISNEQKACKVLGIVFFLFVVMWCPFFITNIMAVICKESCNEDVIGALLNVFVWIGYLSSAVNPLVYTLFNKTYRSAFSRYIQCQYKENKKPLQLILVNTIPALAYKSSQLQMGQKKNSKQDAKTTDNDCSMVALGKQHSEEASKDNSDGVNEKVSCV

**Q.** With `CC(C)N(C)[C@H](C)Cc1c[nH]c2ccccc12` [Compound 018, (R)-[(2R)-1-(1H-indol-3-yl)propan-2-yl](methyl)(propan-2-yl)azanium] as the compound, how does the “B-arrestin assay activity, 2a receptor” value (HTR2A) read?
**A.** Some activity

**Q.** And the “IP1 assay result (response curves)” value [1]?
**A.** incomplete response curves in this assay, showing agonistic activity

**Q.** Which “B-arrestin assay activity, 2a receptor” value (HTR2A) does the source give for `CCN(C)CCc1c[nH]c2cccc(Oc3ccccn3)c12` [Compound 008, (S)-ethyl(methyl){2-[4-(pyridin-2-yloxy)-1H-indol-3-ylethyl}-azanium] here?
**A.** Some activity

**Q.** And the “IP1 assay result (response curves)” value [1]?
**A.** incomplete response curves in this assay, showing agonistic activity

**Q.** How did the “B-arrestin assay activity, 2c receptor” value (HTR2C) turn out when `CCN(C)CCc1c[nH]c2cccc(OC(=O)Nc3ccccc3)c12` [Compound 005, (S)-ethyl(methyl)(2-{4-[(phenylcarbam-oyl)oxy]-1H-indol-3-yl}ethyl)azanium] was run?
**A.** appeared to have activity

**Q.** And the “B-arrestin assay activity, 2a receptor” value (HTR2A)?
**A.** Some activity

**Q.** And the “cAMP assay result (activation of the cAMP pathway)” value [2]?
**A.** may have some activation of the cAMP pathway

**Q.** And the “Ca2+ assay activity, 2c receptor” value (5-HT2C Receptor)?
**A.** Some activity

**Q.** And the “IP1 assay result (response curves)” value [1]?
**A.** incomplete response curves in this assay, showing agonistic activity
